Measurements: patent publication US12589087B2, “Enantiomer selective action on neurotransmission” (The Board of Trustees of the Leland Stanford Junior …, priority 2021, dated 2026)

Legend:
[1] = molecular target: T1, human glutaminase GLS1 (Homo sapiens, UniProt O94925); test: Catalysis of 2MeGln hydrolysis by GLS1 glutaminase; format: biochemical; conditions: 10 mM substrate, 5 ng/mL enzyme, phosphate pH 7.4
T1 construct: purchased Sigma SRP0516
T1 sequence (O94925 55-669): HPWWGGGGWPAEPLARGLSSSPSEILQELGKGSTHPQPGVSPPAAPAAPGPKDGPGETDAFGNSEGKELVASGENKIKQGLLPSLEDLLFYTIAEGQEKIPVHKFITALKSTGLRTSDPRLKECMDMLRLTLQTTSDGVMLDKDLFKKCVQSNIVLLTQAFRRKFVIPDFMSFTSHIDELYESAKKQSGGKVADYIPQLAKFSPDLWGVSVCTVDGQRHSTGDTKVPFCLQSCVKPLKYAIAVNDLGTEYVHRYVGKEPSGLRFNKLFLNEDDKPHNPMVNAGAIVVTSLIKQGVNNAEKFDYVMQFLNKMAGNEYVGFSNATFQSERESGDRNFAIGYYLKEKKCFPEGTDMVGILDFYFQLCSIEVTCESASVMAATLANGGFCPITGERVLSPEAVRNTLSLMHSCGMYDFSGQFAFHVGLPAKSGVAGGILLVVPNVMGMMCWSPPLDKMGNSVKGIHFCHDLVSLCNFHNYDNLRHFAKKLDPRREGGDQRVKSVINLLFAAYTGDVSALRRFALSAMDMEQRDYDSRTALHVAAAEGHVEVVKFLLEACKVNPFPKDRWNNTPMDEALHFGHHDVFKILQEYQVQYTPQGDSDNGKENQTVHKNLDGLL
Procedure: The procedure was adapted from an existing protocol. To a reaction mixture in a 1.5 mL microcentrifuge tube containing 10 mM rac-2MeGln or L-Gln-^13C2 in 100 mM phosphate pH 7.4 buffer made in 20% atom ^18O water, recombinant GLS1 (final concentration: 5 ng/mL) was added. The tubes were incubated in a preheated thermomixer at 37° C. and periodically shaken at 600 rpm (30 s on, 30 s off). 5 μL aliquots were collected in triplicate every 5 min and immediately diluted with 195 μL of cold 60% ACN containing 10 μM Glu-d5 and Gln-d5 as internal standards in a 96 well plate. After collecting all samples, the plate was shaken at 1000 rpm for 5 min at room temperature, and then stored at −80° C. Before analysis the plate was thawed and 10 μL aliquots of the extracted reaction mixtures were diluted with 190 μL of 90% acetonitrile.
The quantification of the newly formed 2MeGlu in the presence of the preexisting trace amounts was performed in the following way. Peak area ratio of Glu-^13C2 to Glu-^13C2^18O was calculated in all samples containing Glu-^13C2. The mean ratio value was then applied to calculate the hypothetical peak area of the newly formed 2MeGlu based on the directly measured 2MeGlu-^18O peak area. The ratio of the newly formed 2MeGlu peak area and the total 2MeGlu peak area was applied to calculate the concentration of the newly formed 2MeGlu from the total 2MeGlu concentration determined directly using the calibration curve.

[2] = tested on: murine primary cerebral cortical neuron cultures; test: Neuronal transport and metabolism of 2MeGln; format: cell-based, mouse; conditions: 1 mM substrate, 2 h, 37° C., neurons
Procedure: The procedure was adapted from an existing protocol. Wild-type (WT) C57BL/6J mating pairs were housed according to Stanford IACUC protocol. On day P0, pups were euthanized and brains dissected in cold HBSS (without Ca^2+ or Mg^2+). The forebrain was microdissected to isolate the cortex and hippocampus. These brain regions were minced in cold HBSS before trypsinization at 37° C. for 9 minutes, followed by trituration, through 2 glass polished Pasteur pipettes. The resulting cell suspension was passed through a 100 μm filter to isolate single cells which were sedimented at 250 g for 5 minutes. The cell pellet was then resuspended in complete Neural Basal Media (Neural Basal Media+Glutamax+B-27 Plus Supplement+Pen/Strep)+10% FBS, counted using a hemocytometer and plated at 1×10^6 cells per mL into a 24 well plate (1 mL per well) coated with poly-D-lysine and laminin. Cultures were grown at 37° C./5% CO2 in a tissue culture incubator. Media was exchanged 50% on day 1 in vitro (1 DIV) with fresh complete Neural Basal Media without FBS and thereafter every other day with the same media. On 3 DIV the media was spiked with 2 μM AraC to limit glial growth. On 10 DIV the media was completely replaced with 500 μL Neural Basal Media containing B-27 Plus Supplement+Pen/Strep without added Glutamax but instead containing 1 mM substrate at 37° C. for 2 h. […]

apparent reaction rate of GLS1 hydrolysis [1]: 65 µM/min
intracellular [1,2-13C]Gln, lower than 2MeGln in corresponding samples [2]: 2 fold
Structure (SMILES): NC(=O)CC[C@H](N)C(=O)O [Gln, L-glutamine, reference compound]
